Tests used:
[1] = target: wild type c-kit (Homo sapiens (Human), UniProt P10721); assay: PathScan phospho c-kit (Tyr719) sandwich ELISA in SCF-stimulated M-07e cells (pKIT assay); assay type: cell-based; conditions: ELISA assay (values not marked *)
Summary of the method: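 Tyr719-phosphorylated c-kit was measured by colorimetric (TMB) sandwich ELISA in lysates of M-07e cells. Cells were starved 4 h without serum or GM-CSF, dosed 60 min at 37 °C with compound (8 points, duplicate, 0.25% DMSO), and stimulated 10 min with human SCF (500 ng/mL as added). IC50 values came from 4-parameter logistic regression.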

[2] = target: human P-glycoprotein (P-gp, MDR1) (Homo sapiens (Human), UniProt P08183); assay: MDCK-MDR1 cell monolayer drug transport assay (P-gp efflux ratio); assay type: in vitro ADME; conditions: pH 7.4, MDCK-MDR1 cells, 1 uM concentration of compound, read-out: Pgp Efflux Ratio, 1 uM
Protocol: The potential for compounds prepared according to the examples to be substrates of P-gp was evaluated using in vitro on Multidrug Resistance Mutation 1-Mardin-Darby Canine Kidney (MDCK-MDR1)) (Mardin-Darby Canine Kidney) cell monolayers overexpressing P-gp grown on permeable supports.
Preparation for cell seeding: MDCK-MDR1 cell culture medium consisting of Dulbecco's Modified Eagle's Medium (DMEM) with high glucose and L-glutamine supplemented with: 10% FBS, 0.1 mg/mL of streptomycin, 0.6 μg/mL of Kanamycin sulfate and 100 units of penicillin was prepared. 50 μL of culture medium was added to each well of the Transwell insert. The Transwell insert was removed from the reservoir and 25 mL of culture medium was added. After incubation at 37° C., 5% CO2 for 1 hour, the plates were ready for cell seeding. The cells were cultivated in T-75 flasks in a cell culture incubator set at 37° C., 5% CO2, 95% relative humidity until they reached 80-90% confluence before detaching and splitting. The cultivated cells were rinsed in T-75 flasks with 5 mL PBS and aspirated off, and then 1.5 mL trypsin/EDTA was added and incubated at 37° C. for approximately 5 to 10 minutes or until the cells detach and float. The trypsin/EDTA was inactived by adding excess serum containing medium. The cell suspension was transferred to a conical tube and the cells pelleted by centrifugation at 120×g for 10 minutes. The cells were resuspended in seeding medium at a density of 1.56×10^6 cells/mL. This cell concentration was used to seed 5.45×10^5 cells/cm^2.
Seeding and feeding of MDCK-MDR1 cells into transwell plates: 50 μL of the above cell suspension was added to each well of a previously prepared Transwell plate and the plate was incubated for 4-8 days, replacing the medium every other day beginning no sooner than 48 hours after initial plating. The medium must be replaced on the day before conducting the experiment, and the procedure for medium changes was carried out as follows. The plate was removed from the incubator and placed in a hood. The medium was aspirated from a reservoir and each Transwell was inserted. 100 μL of culture medium was added to each well of the Transwell inserts and 25 mL of culture medium to reservoir tray. The plate was returned to the incubator.
Assessment of cell monolayer integrity: When the 4-day cultured MDCK-MDR1 cells reached confluence and were differentiated, the medium was removed from the reservoir and Transwell inserts. 100 μL of prewarmed culture medium was added to each transwell insert and 25 mL was added to the reservoir tray. The electrical resistance across the monolayer was measured using a Millicell Epithelial Volt-Ohm measuring system. The electrical resistance for each well was measured and then the plate was returned to the incubator. TEER values were calculated using this formula: TEER measurement (ohms)×Area of membrane (cm2)=TEER value (ohm cm2). Any monolayer with a TEER value <42 ohms·cm2, indicating poor monolayer formation, was discarded.
Performing the drug transport assay: The MDCK-MDR1 plate was removed from the incubator and the monolayer was washed, exchanging the volume two times using pre-warmed HBSS (Hank's balanced salt solution) (10 mM HEPES, pH 7.4). The plate was then incubated at 37° C. for 30 minutes. A 1 μM compound working solution was prepared as follows: Added […] of stock solution (10 mM in DMSO) of test compound and control compounds (Metoprolol, Prazosin and Imatinib) in one 96 well plate, then added 98 μL of DMSO into the same well to obtain 0.2 mM stock solutions (note a stock solution was further diluted 1:10 for eventually making a 0.1 uM compound working solution). Transfered 3 μL of 0.2 mM solution into 597 μL of transport buffer in one 96 well plate to prepare the 1 μM compound working solution. The plate was shaken at 1000 rpm for 10 min.

human P-glycoprotein (P-gp, MDR1), sequence (P08183 whole entry): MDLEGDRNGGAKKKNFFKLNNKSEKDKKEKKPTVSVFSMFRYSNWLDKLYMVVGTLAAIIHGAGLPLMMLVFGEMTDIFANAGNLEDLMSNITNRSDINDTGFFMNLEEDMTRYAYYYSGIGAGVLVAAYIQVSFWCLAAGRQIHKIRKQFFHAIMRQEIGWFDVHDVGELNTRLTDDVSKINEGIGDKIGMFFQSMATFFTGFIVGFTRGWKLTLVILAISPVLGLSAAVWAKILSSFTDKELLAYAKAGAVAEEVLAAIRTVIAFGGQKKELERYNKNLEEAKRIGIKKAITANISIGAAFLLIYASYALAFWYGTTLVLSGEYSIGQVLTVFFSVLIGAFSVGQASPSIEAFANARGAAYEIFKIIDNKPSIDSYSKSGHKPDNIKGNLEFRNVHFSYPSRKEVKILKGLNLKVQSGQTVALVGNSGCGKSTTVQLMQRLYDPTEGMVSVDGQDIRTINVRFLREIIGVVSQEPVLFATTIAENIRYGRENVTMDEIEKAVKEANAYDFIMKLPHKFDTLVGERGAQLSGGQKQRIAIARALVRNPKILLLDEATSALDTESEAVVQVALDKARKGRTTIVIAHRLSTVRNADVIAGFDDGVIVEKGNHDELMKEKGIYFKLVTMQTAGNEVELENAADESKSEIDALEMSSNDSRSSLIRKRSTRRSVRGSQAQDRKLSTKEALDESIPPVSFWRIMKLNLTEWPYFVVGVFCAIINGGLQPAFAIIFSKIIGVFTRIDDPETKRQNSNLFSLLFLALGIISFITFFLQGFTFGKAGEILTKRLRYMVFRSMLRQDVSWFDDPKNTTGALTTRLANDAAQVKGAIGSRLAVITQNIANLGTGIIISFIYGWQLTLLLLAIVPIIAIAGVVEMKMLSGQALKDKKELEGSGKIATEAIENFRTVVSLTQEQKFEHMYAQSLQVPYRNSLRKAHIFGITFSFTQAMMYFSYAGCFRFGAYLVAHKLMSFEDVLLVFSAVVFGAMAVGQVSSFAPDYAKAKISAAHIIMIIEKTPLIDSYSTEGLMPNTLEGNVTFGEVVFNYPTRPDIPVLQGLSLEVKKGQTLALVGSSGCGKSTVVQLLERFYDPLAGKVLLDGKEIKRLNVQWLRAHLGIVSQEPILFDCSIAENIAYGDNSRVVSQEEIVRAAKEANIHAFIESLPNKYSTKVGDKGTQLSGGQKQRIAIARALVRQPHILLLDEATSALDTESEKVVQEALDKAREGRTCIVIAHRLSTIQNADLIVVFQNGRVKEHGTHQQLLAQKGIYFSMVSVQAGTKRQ
wild type c-kit, sequence (P10721 26-976): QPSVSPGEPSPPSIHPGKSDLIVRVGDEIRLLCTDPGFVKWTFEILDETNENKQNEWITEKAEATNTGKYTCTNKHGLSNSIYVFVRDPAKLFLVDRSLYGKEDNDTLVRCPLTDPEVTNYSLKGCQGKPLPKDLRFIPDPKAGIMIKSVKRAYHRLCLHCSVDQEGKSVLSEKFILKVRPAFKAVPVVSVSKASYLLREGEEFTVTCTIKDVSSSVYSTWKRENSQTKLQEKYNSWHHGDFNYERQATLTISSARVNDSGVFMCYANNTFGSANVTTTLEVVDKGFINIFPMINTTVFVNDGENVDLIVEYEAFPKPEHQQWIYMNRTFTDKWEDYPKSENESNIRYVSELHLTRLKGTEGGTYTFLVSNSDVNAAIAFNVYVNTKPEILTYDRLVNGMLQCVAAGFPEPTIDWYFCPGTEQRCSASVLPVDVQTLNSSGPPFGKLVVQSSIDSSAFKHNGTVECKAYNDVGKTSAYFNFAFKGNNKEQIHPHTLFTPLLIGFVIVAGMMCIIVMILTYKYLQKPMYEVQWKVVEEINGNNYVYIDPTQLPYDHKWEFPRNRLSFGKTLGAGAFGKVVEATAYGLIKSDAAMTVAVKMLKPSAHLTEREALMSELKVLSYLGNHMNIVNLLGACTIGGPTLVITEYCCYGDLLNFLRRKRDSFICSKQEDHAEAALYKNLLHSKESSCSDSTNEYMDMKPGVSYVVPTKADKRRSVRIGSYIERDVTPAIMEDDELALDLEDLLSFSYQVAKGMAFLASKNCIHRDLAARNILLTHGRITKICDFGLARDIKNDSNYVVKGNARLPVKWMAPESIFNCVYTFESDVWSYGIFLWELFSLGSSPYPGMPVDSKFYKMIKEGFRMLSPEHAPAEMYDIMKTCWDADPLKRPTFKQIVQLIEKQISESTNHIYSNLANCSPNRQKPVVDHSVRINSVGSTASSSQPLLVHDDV

Q: What does the source list for `Cc1ccc(-c2nnn(C3CC(F)(F)C3)n2)cc1NC(=O)c1cnn2ccc(N3CC[C@@H](O)C3)cc12` [Example 78, (R)-N-(5-(2-(3,3-difluorocyclobutyl)-2H-tetrazol-5-yl)-2-methylphenyl)-5-(3-hydroxypyrrolidin-1-yl)pyrazolo[1,5-a]pyridine-3-carboxamide]?
A: IC50 [1]: 9.6 nM; efflux ratio at 2 h, 1 µM [2]: 13.1

Q: `COC[C@@H](O)Cn1cc(-c2ccn3ncc(C(=O)Nc4cc(-c5nnn(C6CC6)n5)ccc4C)c3c2)c(C2CC2)n1` [Example 243, (S)-5-(3-cyclopropyl-1-(2-hydroxy-3-methoxypropyl)-1H-pyrazol-4-yl)-N-(5-(2-cyclopropyl-2H-tetrazol-5-yl)-2-methylphenyl)pyrazolo[1,5-a]pyridine-3-carboxamide] was tested. Which IC50 [1] did it give?
A: 0.1 nM

Q: And the efflux ratio at 2 h, 1 µM [2]?
A: 13.5

Q: Which results are given for `COCCNc1ccn2ncc(C(=O)Nc3cc(-c4nnn([C@H]5C[C@@H](C(F)(F)F)C5)n4)c(F)cc3C)c2c1` [Example 108, N-(4-fluoro-2-methyl-5-(2-((1s,3s)-3-(trifluoromethyl)cyclobutyl)-2H-tetrazol-5-yl)phenyl)-5-((2-methoxyethyl)amino)pyrazolo[1,5-a]pyridine-3-carboxamide]?
A: IC50 [1]: 11.6 nM; efflux ratio at 2 h, 1 µM [2]: 4

Q: Which results are given for `COC(=O)N1CC(c2cnn(-c3ccc(C)c(NC(=O)c4cnn5ccc(NCC(F)F)cc45)c3)n2)C1` [Example 139, methyl 3-(2-(3-(5-((2,2-difluoroethyl)amino)pyrazolo[1,5-a]pyridine-3-carboxamido)-4-methylphenyl)-2H-1,2,3-triazol-4-yl)azetidine-1-carboxylate]?
A: IC50 [1]: 26.3 nM; efflux ratio at 2 h, 1 µM [2]: 18.9

Q: How did the IC50 [1] turn out when `Cc1ccc(-c2nnn(C(C)C)n2)cc1NC(=O)c1cnn2ccc(-c3cnn(CCO)c3)cc12` [Example 49, 5-(1-(2-hydroxyethyl)-1H-pyrazol-4-yl)-N-(5-(2-isopropyl-2H-tetrazol-5-yl)-2-methylphenyl)pyrazolo[1,5-a]pyridine-3-carboxamide] was run?
A: 1.3 nM

Q: What about the efflux ratio at 2 h, 1 µM [2] of the same compound?
A: 14

Q: For `COC(=O)N1CC(c2cnn(-c3ccc(C)c(NC(=O)c4cnn5ccc(NC6COC6)cc45)c3)n2)C1` [Example 141, methyl 3-(2-(4-methyl-3-(5-(oxetan-3-ylamino)pyrazolo[1,5-a]pyridine-3-carboxamido)phenyl)-2H-1,2,3-triazol-4-yl)azetidine-1-carboxylate], which IC50 [1] is on record?
A: 7.6 nM

Q: What about the efflux ratio at 2 h, 1 µM [2] of the same compound?
A: 36.4

Q: How did the IC50 [1] turn out when `COC(=O)N1CC(n2nnc(-c3ccc(C)c(NC(=O)c4cnn5ccc(N6CCOCC6)cc45)c3)n2)C1` [Example 69, methyl 3-(5-(4-methyl-3-(5-morpholinopyrazolo[1,5-a]pyridine-3-carboxamido)phenyl)-2H-tetrazol-2-yl)azetidine-1-carboxylate] was run?
A: 50.1 nM

Q: What about the efflux ratio at 2 h, 1 µM [2] of the same compound?
A: 11.7

Q: What does the source list for `COC[C@@H](O)Cn1cc(-c2ccn3ncc(C(=O)Nc4cc(-c5nnn(C6CC6)n5)c(C)cc4Cl)c3c2)cn1` [Example 252, (S)-N-(2-chloro-5-(2-cyclopropyl-2H-tetrazol-5-yl)-4-methylphenyl)-5-(1-(2-hydroxy-3-methoxypropyl)-1H-pyrazol-4-yl)pyrazolo[1,5-a]pyridine-3-carboxamide]?
A: IC50 [1]: 3.7 nM; efflux ratio at 2 h, 1 µM [2]: 5.1

Q: How did the IC50 [1] turn out when `COC(=O)N1CC(n2nnc(-c3ccc(C)c(NC(=O)c4cnn5ccc(NCC(C)(F)F)cc45)c3)n2)C1` [Example 92, methyl 3-(5-(3-(5-((2,2-difluoropropyl)amino)pyrazolo[1,5-a]pyridine-3-carboxamido)-4-methylphenyl)-2H-tetrazol-2-yl)azetidine-1-carboxylate] was run?
A: 22.1 nM

Q: What about the efflux ratio at 2 h, 1 µM [2] of the same compound?
A: 11.4

Q: How did the IC50 [1] turn out when `Cc1ccc(-c2nnn(C)n2)cc1NC(=O)c1cnn2ccc(-c3cnn(C[C@@H](C)O)c3)cc12` (mixture of isomers) [Example 53, (R)-5-(1-(2-hydroxypropyl)-1H-pyrazol-4-yl)-N-(2-methyl-5-(2-methyl-2H-tetrazol-5-yl)phenyl)pyrazolo[1,5-a]pyridine-3-carboxamide and (S)-5-(1-(2-hydroxypropyl)-1H-pyrazol-4-yl)-N-(2-methyl-5-(2-methyl-2H-tetrazol-5-yl)phenyl)pyrazolo[1,5-a]pyridine-3-carboxamide] was run?
A: 1.5 nM

Q: What about the efflux ratio at 2 h, 1 µM [2] of the same compound?
A: 10.9

Q: How did the IC50 [1] turn out when `Cc1ccc(-c2nnn([C@H]3C[C@@H](C(F)(F)F)C3)n2)cc1NC(=O)c1cnn2ccc(N3CCN(CCO)CC3)cc12` [Example 106, 5-(4-(2-hydroxyethyl)piperazin-1-yl)-N-(2-methyl-5-(2-((1s,3s)-3-(trifluoromethyl)cyclobutyl)-2H-tetrazol-5-yl)phenyl)pyrazolo[1,5-a]pyridine-3-carboxamide] was run?
A: 5.8 nM

Q: What about the efflux ratio at 2 h, 1 µM [2] of the same compound?
A: 37.4

Q: How did the IC50 [1] turn out when `COC(=O)N1CC(n2nnc(-c3ccc(C)c(NC(=O)c4cnn5ccc(NCC6CCO6)cc45)c3)n2)C1` (stereo not shown) [Example 95, methyl 3-(5-(4-methyl-3-(5-((oxetan-2-ylmethyl)amino)pyrazolo[1,5-a]pyridine-3-carboxamido)phenyl)-2H-tetrazol-2-yl)azetidine-1-carboxylate] was run?
A: 30.5 nM

Q: And the efflux ratio at 2 h, 1 µM [2]?
A: 21.5

Q: For `Cc1nnn(-c2ccc(C)c(NC(=O)c3cnn4ccc(-c5cnn(CCO)c5)cc34)c2)n1` [Example 51, 5-(1-(2-hydroxyethyl)-1H-pyrazol-4-yl)-N-(2-methyl-5-(5-methyl-2H-tetrazol-2-yl)phenyl)pyrazolo[1,5-a]pyridine-3-carboxamide], which IC50 [1] is on record?
A: 27.4 nM

Q: And the efflux ratio at 2 h, 1 µM [2]?
A: 5.5

Q: `Cc1ccc(-c2nnn(C3CC(F)(F)C3)n2)cc1NC(=O)c1cnn2ccc(N3CC[C@H](O)C3)cc12` [Example 62, (S)-N-(5-(2-(3,3-difluorocyclobutyl)-2H-tetrazol-5-yl)-2-methylphenyl)-5-(3-hydroxypyrrolidin-1-yl)pyrazolo[1,5-a]pyridine-3-carboxamide] was tested. Which IC50 [1] did it give?
A: 6.1 nM

Q: And the efflux ratio at 2 h, 1 µM [2]?
A: 11

Q: What does the source list for `Cc1ccc(-c2nnn([C@H]3C[C@@H](C(F)(F)F)C3)n2)cc1NC(=O)c1cnn2ccc(N3CCC(C)(O)CC3)cc12` [Example 122, 5-(4-hydroxy-4-methylpiperidin-1-yl)-N-(2-methyl-5-(2-((1s,3s)-3-(trifluoromethyl)cyclobutyl)-2H-tetrazol-5-yl)phenyl)pyrazolo[1,5-a]pyridine-3-carboxamide or 5-(4-hydroxy-4-methylpiperidin-1-yl)-N-(2-methyl-5-(2-((1r,3r)-3-(trifluoromethyl)cyclobutyl)-2H-tetrazol-5-yl)phenyl)pyrazolo[1,5-a]pyridine-3-carboxamide]?
A: IC50 [1]: 0.6 nM; efflux ratio at 2 h, 1 µM [2]: 12.8

Q: How did the IC50 [1] turn out when `COC(=O)N1CC(c2nnn(-c3ccc(C)c(NC(=O)c4cnn5ccc(N6CCN(C)CC6)cc45)c3)n2)C1` [Example 112, methyl 3-(2-(4-methyl-3-(5-(4-methylpiperazin-1-yl)pyrazolo[1,5-a]pyridine-3-carboxamido)phenyl)-2H-tetrazol-5-yl)azetidine-1-carboxylate] was run?
A: 43.4 nM

Q: And the efflux ratio at 2 h, 1 µM [2]?
A: 15.7

Q: What does the source list for `CCOC(=O)N1CC(n2nnc(-c3ccc(C)c(NC(=O)c4cnn5ccc(NC)cc45)c3)n2)C1` [Example 126, ethyl 3-(5-(4-methyl-3-(5-(methylamino)pyrazolo[1,5-a]pyridine-3-carboxamido)phenyl)-2H-tetrazol-2-yl)azetidine-1-carboxylate]?
A: IC50 [1]: 10.3 nM; efflux ratio at 2 h, 1 µM [2]: 15.9

Source: US20240262826A1, “WILD TYPE KIT INHIBITORS” (Blueprint Medicines Corporation, priority 2022, published 2024)
